Earlier results on one molecule are cited in paper PMC10673369, “Preliminary SAR of Novel Pleuromutilin–Polyamine Conjugates” (Microorganisms, 2023).

SMILES strings stand for the structures.

What all share (parameters): method as in PMID 22191527, PMID 27742734, PMID 23836172, PMID 30019769
In data set [1] the test system is non-fastidious Gram-negative bacteria. The settings on record: cited from earlier work.
The subject of data set [2] is fastidious Gram-negative bacteria, including Haemophilus influenza and Moraxella catarrhalis. The note with it: incl. Haemophilus influenza and Moraxella catarrhalis; cited from earlier work.
Data set [3] deals with aerobic Gram-positive bacteria. The settings on record: incl. MRSA, VISA, hVISA, VRSA, PRSP, multidrug-resistant S. pneumoniae, VRE; cited from earlier work.

`C=C[C@]1(C)C[C@@H](OC(=O)CS[C@@H]2CC[C@@H](N)C[C@H]2O)[C@]2(C)[C@H](C)CC[C@]3(CCC(=O)[C@H]32)[C@@H](C)[C@@H]1O` [Compound 6, lefamulin]: the “Antibacterial activity against non-fastidious Gram-negative bacteria” value in data set [1] is on record as “no activity”. The “Antibacterial activity against fastidious Gram-negative bacteria” value in data set [2] is “favorable to moderate activity”. Moreover, in data set [3], the “Antibacterial activity against aerobic Gram-positive bacteria” value was “potent antibacterial activity”.
